# Reference: patent US6413764B1, “Human metabotropic glutamate receptors, nucleic acids encoding same and uses thereof” (Merck & Co., Inc., priority 1993, dated 2002)
# Assays:
# [1] = target: T1, human mGluR5a receptor (Homo sapiens, UniProt P41594); assay: [3H]-glutamate binding to membranes of HEK 293 cells transfected with mGluR5a3; parameters: expressed in transfected cells; host or cells: HEK 293 cells, transient CaPO4 transfection; conditions: 200 μg of membranes, 100 nM [3H]-glutamate
# Method: In order to prepare membranes from HEK 293 cells transfected. with mGluR5a-encoding DNA or pUC19 (negative control), cells were scraped from the tissue culture plates, and the plates rinsed with 5 ml of PBS (phosphate-buffered saline: 137 mM NaCl, 2.7 mM KCl, 10 mM Na2HPO4, 1.7 mM KH2PO4). The cells were centrifuged at low speed in a table-top centrifuge, and the cell pellet was rinsed with PBS. The cell pellet was resuspended in 20 volumes of 50 mM Tris-HCl containing 0.5 mM PMSF, pH 7.6. The cells were homogenized on ice in a Dounce (teflon/glass) homogenizer using 10-20 strokes. The homogenate was centrifuged at 120,000×g for 30 min. at 4° C. The final membrane pellet was resuspended in 50 mM Tris-HCl containing 0.5 mM PMSF, pH 7.6. […] The protein concentration was determined using the method of Bradford [(1976) Anal. Biochem. 72:248).
# Specific binding of [^3H]-glutamate to membranes prepared from HEK 293 cells transfected with mGluR5a-encoding DNA or pUC19 was determined essentially as described for measuring binding to rat brain membranes with minor modifications. […] NMDA, AMPA and kainate were excluded from the assay mixture when HEK 293 cell membranes were being analyzed for [^3H]-glutamate binding.
# Specific binding of [^3H]-glutamate to membranes prepared from HEK 293 cells transfected with mGluR5a3 or pUC19 was measured using 200 μg of membranes and 100 nM [^3H]-glutamate.
# [2] = target: olfactory cyclic nucleotide-gated channel (Rattus norvegicus, UniProt Q00195); conditions: 1 mM cAMP; membrane potential ramped from −100 to +100 mV in 2 seconds; one patch
# Method: HEK293 cells were grown in monolayers (approximately 2×10^6 cells per 10 cm poly-D-lysine-coated plate) in Dulbecco's modified Eagle's medium (DMEM; Gibco) containing 5% defined supplemented calf serum (Hyclone) including 100 U/ml penicillin and 100 μg/ml streptomycin sulfate. […] Transfection efficiencies, as determined by measuring β-galactosidase activity, were 50-70%.
# HEK cells transfected with olfactory cyclic nucleotide-gated channel DNA were incubated 24-48 hours before testing for function. The activity of the channels was first assessed electrophysiologically using inside-out membrane patches pulled from the transfected cells so that the concentration of cAMP reaching the cytoplasmic face could be controlled (see, e.g., Single-Channel Recording, Sakmann and Neher, eds., Plenum Press, N.Y. (1983)). […]
# [3] = test system: olfactory cyclic nucleotide-gated channel; assay: Single-cell video imaging of [Ca++]i in HEK293 cells transfected with pCMV-OCNA; assay type: cell-based; conditions: 1 mM IBMX
# Method: The transfectants were also analyzed by single-cell video imaging of internal calcium levels ([Ca^++]i). This method allows analysis of cyclic nucleotide-gated channel activity by measurement of intracellular calcium levels, which change with the amount of calcium influx through the channel, as regulated by cyclic nucleotide activation of the channel. The imaging assay was conducted essentially as described in Example 3.C.1.b., with some modifications. After dye loading, the cells were examined using a Zeiss Axiovert microscope and 100 W mercury lamp, a Dage intensified CCD camera, and Image-1 hardware and software for image processing. The software controlled the alternate excitation of the cells at 350 and 385 nm (typically every 5 seconds) through a 20×1.3 N.A. oil immersion objective. Light emitted at greater than 510 nm was collected by the CCD camera, digitized, and 350 and 385 nm excitation images were background-subtracted before calculating the 350/385 nm intensity ratio.
# For quantitative analysis, the average 350/385 ratio value in a 12 by 12 pixel region over each cell was calculated by the software for each ratio image in an experiment and imported into a spreadsheet for further analysis and graphing. […]
# In these experiments, the HEK293 cell transfectants were exposed to agents which increase intracellular cAMP levels and monitored for subsequent changes in [Ca^++]i. […]
# [4] = target: T1, human mGluR5a receptor; assay: Automated fluorescence assay (fluo-3) in transiently transfected HEK 293 cells; assay type: cell-based; parameters: expressed in transfected cells; host or cells: HEK 293 cells, transient CaPO4 transfection; conditions: cells transfected with mGluR5a2
# Method: HEK 293 cells were transiently transfected with DNA encoding mGluR5a (constructs mGluR5a2 and mGluR5a3 and construct MMTV-hmGluR5a) receptors. Approximately 2×10^6 HEK cells were transiently transfected with 5-18 μg (or 0.18 μg in some transfections, see Example 3.C.2.) of the indicated plasmid according to standard CaPO4 transfection procedures [see Wigler et al. (1979) Proc. Natl. Acad. Sci. USA 76:1373-1376]. In addition, 0.5-2 μg (or 0.18 μg in some transfections, see Example 3.C.2) of plasmid pCMVβgal (Clontech Laboratories, Palo Alto, Calif.), which contains the Escherichia coli β-galactosidase gene fused to the CMV promoter, were co-transfected as a reporter gene for monitoring the efficiency of transfection. The transfectants were analyzed for β-galactosidase expression by direct staining of the product of a reaction involving β-galactosidase and the X-gal substrate [Jones (1986) EMBO 5:3133-3142]. Transfectants can also be analyzed for β-galactosidase expression by measurement of β-galactosidase activity [Miller (1972) in Experiments in Molecular Genetics, pp.352-355, Cold Spring Harbor Press].
# HEK 293 cells that were transiently transfected with 5 μg of MMTV-hmGluR5A were co-transfected with 5 μg of pRShGR (ATCC accession no. 67200) which contains DNA encoding a glucocorticoid receptor operatively linked to the Rous Sarcoma virus (RSV) LTR promoter. Co-expression of glucocorticoid receptors in these cells should insure that induction of expression of the MMTV promoter-mGluR5a DNA occurs upon addition of glucocorticoid (e.g., dexamethasone) to the cells.
# Untransfected HEK 293 cells (or HEK 293 cells transiently transfected with pCMV-T7-3) and HEK 293 cells that had been transfected with mGluR5a-encoding DNA were plated in the wells of a 96-well microtiter dish (Nunc Catalog No. 1-6708, distributed by Alameda Industries, Escondido, Calif.) that had been precoated with poly-L-lysine at a density of 2×10^5 cells/well and loaded with fluo-3 by incubation for 2 hours at 20° C. in a medium containing 20 μM fluo-3, 0.2% Pluronic F-127 in HBS (125 mM NaCl, 5 mM KCl, 1.8 mM CaCl2, 0.62 MM MgCl2, 20 mM glucose, 20 mM HEPES, pH 7.4). The cells were then washed with assay buffer (i.e. HBS). The microtiter dish was then placed into a fluorescence plate reader (e.g., Fluoroskan II, Lab Products International, Ltd., Raleigh, N.C.), and the basal fluorescence of each well was measured and recorded before addition of metabotropic receptor-modulating compounds such as quisqualate, glutamate, trans-ACPD (1-amino-cyclopentane-1,3-dicarboxylic acid), 1S,3R-ACPD, AP3 (2-amino-3-phosphonopropionate) AP5 (2-amino-5-phosphonopentanoate), and CNQX (6-cyano-7-nitroquinoxaline-2,3-dione) to the wells. The fluorescence of the wells was monitored repeatedly (75 readings at 0.63-sec intervals) following addition of agonist.
# [5] = test system: endogenous G-protein-coupled muscarinic acetylcholine receptors; assay: Fluorescence imaging assay (fura-2), response to muscarinic agonist; assay type: cell-based, human; conditions: 1 mM; transfectants and untransfected HEK 293 cells
# Method: HEK 293 cells that had been transiently transfected with mGluR5a3 and untransfected HEK 293 cells (control) were analyzed by digital video imaging in order to visualize metabotropic receptor-mediated changes in intracellular Ca^++ concentration. Transfectants (4×10^5 cells per 35-mm culture dish with glass-insert bottom) were loaded with fura-2 by exposing the cells to 1 μM fura-2 (acetoxymethyl ester) for 25 min at room temperature in the dark. The cells were then washed three times with DMEM and four times with Ringer's (160 mM NaCl, 5 mM KCl, 2 mM CaCl2, 1 mM MgCl2, 11 mM glucose, 5 mM HEPES, pH 7.3) solution.
# The transfectants and untransfected cells were then placed on the stage of an Axiovert 100 TV inverted microscope (Zeiss, Oberkochren, Germany) equipped with a 150 W xenon lamp as the UV light source. […]
# The uncalibrated fura-2 ratios were used to generate pseudocolor images with purple corresponding to resting intracellular Ca^++ concentration (˜100 nM) and red to high intracellular Ca^++ concentration (˜1 μM). For quantitative analysis, the average ratio value in a 12-by-12 pixel region over each cell was calculated by the software for each ratio image in an experiment and imported into a spreadsheet for further analysis and graphing.
# [6] = target: T1, human mGluR5a receptor; assay: Phosphatidylinositol hydrolysis (IP1) assay in HEK 293 cells transiently transfected with mGluR5a3; assay type: cell-based; parameters: expressed in transfected cells; host or cells: HEK 293 cells, transient CaPO4 transfection; conditions: 1 mM AP3
# Method: HEK 293 cells that had been transiently transfected with mGluR5a3 were plated in 24-well microtiter plates at a density of 8×10^5 cells/well. After the cells were allowed to settle and adhere to the bottom of the plate for a few hours, 2 μCi of [^3H]-myo-inositol (Amersham catalog # PT6-271, Arlington Heights, Ill.; specific activity=17.7 Ci/mmol) was added to each well and incubated overnight at 37° C. The next day, the cells were examined under a Nikon Diaphot inverted microscope to assess the health of the cells morphologically as well as to determine if the wells contained a confluent layer of cells. Media was then aspirated and the cells were washed twice with 0.5 ml Krebs bicarbonate buffer [117.9 mM NaCl, 4.72 mM KCl, 2.54 mM CaCl2, 1.18 mM MgSO4, 1.19 mM KH2PO4, 25 mM NaHCO3, 11.1 mM dextrose (equilibrated with 95% O2, 5% CO2, pH 7.4)]. The cells were incubated for 45 min. at room temperature. The buffer was then aspirated from each well and the cells were washed and incubated in 0.5 ml/well for 45 min at room temperature. The buffer was aspirated from each well, and the cells were then incubated for 20 min at 37° C. with 450 μl Krebs-bicarbonate buffer containing 10 mM LiCl instead of 10 mM NaCl (to block hydrolysis of IP1 to inositol and inorganic phosphate) and 10 mM unlabeled myo-inositol.
# To begin treatment of the cells with metabotropic receptor-modulating compounds, 50 μl of Krebs-bicarbonate buffer (control) or 10× the final concentration of the compound was added to each well and the incubation was continued for 40 min. Incubation was terminated by addition of 1 ml ice-cold methanol to each well.
# In order to isolate IP1 from the cells, the cells were removed from the plates by scraping with plastic pipette tips, and the cell suspension was transferred to 12×75 mm glass tubes. The tubes were thoroughly vortexed, and a 150-μl aliquot, i.e., one-tenth of the total volume, of each reaction mixture was transferred to another tube for protein determination. The water-soluble inositol phosphates were separated from the radiolabelled membrane phospholipids by extraction in 1 ml chloroform. The tubes were incubated at room temperature for 30 min before centrifugation at 500×g for 5 min at 4° C. The aqueous (top) layer containing the [^3H]-inositol phosphates was transferred to 10-ml syringes connected to Accell QMA SEP-PAK columns (Millipore; Calif.), which were attached to an Amersham Superseparator apparatus that was modified to allow collection into 20-ml scintillation vials. Water (10 ml) was added to the cartridge to remove [^3H]-inositol precursor, followed by 4 ml 0.02 M triethylammonium hydrogen carbonated buffer (TEAB, Fluka; N.Y.). To separately remove [^3H]-IP1, [^3H]-IP2 and [^3H]-IP3 from the cartridge, 4 ml of 0.1 M TEAB, 4 ml of 0.3 M TEAB and 4 ml of 0.4 M TEAB were sequentially added to the cartridge and the separate eluate fractions were collected in large scintillation vials. Ecolume cocktail (15 ml; ICN; California) was added to each vial for subsequent scintillation counting to determine the amount of each IP in the separate fractions. Protein concentration was determined using the Bio-Rad Protein Micro-Assay (Bio-Rad, Richmond, Calif.).
# T1 sequence (P41594 21-1180 isoform P41594-2 limits assumed): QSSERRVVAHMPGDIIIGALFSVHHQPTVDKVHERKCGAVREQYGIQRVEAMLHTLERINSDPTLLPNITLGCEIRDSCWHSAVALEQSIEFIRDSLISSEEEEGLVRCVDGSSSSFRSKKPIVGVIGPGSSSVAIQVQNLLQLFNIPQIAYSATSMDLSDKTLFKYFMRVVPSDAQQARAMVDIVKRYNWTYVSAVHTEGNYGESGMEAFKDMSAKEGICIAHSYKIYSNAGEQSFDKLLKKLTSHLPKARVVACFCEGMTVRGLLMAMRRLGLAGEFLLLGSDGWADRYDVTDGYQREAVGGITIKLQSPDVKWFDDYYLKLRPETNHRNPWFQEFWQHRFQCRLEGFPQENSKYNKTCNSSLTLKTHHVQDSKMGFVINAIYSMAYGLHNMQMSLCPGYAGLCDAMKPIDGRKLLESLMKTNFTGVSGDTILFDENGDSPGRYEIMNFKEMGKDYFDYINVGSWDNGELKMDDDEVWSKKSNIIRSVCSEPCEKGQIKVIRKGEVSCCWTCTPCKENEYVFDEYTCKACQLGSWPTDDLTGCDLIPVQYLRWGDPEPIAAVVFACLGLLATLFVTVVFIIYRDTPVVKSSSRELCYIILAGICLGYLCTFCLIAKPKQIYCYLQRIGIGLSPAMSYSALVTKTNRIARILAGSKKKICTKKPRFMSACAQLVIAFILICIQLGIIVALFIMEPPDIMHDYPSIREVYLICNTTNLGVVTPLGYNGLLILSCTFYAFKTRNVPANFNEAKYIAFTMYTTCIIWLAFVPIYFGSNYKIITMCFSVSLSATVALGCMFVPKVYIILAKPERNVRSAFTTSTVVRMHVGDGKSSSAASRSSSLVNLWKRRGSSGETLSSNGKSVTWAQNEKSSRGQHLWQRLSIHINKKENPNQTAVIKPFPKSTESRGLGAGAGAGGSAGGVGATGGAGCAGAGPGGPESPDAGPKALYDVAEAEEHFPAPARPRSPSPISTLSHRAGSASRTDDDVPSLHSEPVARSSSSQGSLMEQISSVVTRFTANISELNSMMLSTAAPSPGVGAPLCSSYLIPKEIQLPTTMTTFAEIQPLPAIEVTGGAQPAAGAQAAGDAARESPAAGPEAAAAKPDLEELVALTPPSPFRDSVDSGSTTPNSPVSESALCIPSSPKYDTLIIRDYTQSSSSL
# olfactory cyclic nucleotide-gated channel (Rattus norvegicus, UniProt Q00195), sequence (Q00195 whole entry): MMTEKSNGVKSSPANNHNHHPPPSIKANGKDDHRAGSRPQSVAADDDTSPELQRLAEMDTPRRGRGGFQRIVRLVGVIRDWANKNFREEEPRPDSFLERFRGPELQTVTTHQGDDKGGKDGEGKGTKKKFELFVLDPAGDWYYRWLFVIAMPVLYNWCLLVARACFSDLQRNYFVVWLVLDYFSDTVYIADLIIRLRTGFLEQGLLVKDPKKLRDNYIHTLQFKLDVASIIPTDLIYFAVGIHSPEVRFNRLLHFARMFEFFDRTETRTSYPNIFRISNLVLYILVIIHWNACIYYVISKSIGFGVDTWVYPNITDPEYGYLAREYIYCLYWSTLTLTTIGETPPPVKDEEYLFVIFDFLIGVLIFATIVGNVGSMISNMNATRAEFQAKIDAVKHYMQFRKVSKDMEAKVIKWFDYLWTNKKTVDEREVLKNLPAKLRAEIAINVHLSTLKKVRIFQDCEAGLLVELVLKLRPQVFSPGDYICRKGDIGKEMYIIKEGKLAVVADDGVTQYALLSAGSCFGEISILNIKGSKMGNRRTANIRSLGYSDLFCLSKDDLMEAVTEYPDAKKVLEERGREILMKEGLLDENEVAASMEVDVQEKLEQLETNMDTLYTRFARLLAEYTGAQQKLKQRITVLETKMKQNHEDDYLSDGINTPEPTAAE
molecule,measurement,setting,value
[^3H]-glutamate,specific binding versus membranes of pUC19-transfected cells,[1],significantly higher
"Nc1ncnc2c1ncn2[C@@H]1O[C@@H]2COP(=O)(O)O[C@H]2[C@H]1O [cAMP, cyclic AMP]",current in inside-out patch,[2],a current was elicited
"CC(C)Cn1c(=O)n(C)c(=O)c2[nH]cnc21 [IBMX, 3-isobutyl-1-methylxanthine]",change in [Ca++]i,[3],more significant increase
"NC(CCCP(=O)(O)O)C(=O)O (centres unmarked) [AP5, 2-amino-5-phosphonopentanoate]","inhibition of glutamate-, quisqualate- or trans-ACPD-stimulated fluorescence increases",[4],"Neither of these compounds (AP3, AP5 or CNQX) inhibited"
"N#Cc1cc2c(cc1[N+](=O)[O-])=NC(=O)C(=O)N=2 [CNQX, 6-cyano-7-nitroquinoxaline-2,3-dione]","inhibition of glutamate-, quisqualate- or trans-ACPD-stimulated fluorescence increases",[4],"Neither of these compounds (AP3, AP5 or CNQX) inhibited"
C[N+](C)(C)CCOC(N)=O.[Cl-] [carbamylcholine],intracellular Ca++ concentration change,[5],detectable increase in the intracellular Ca^++ concentration of the majority of the cells
"NC(CP(=O)(O)O)C(=O)O (centres unmarked) [AP3, 2-amino-3-phosphonopropionate]","inhibition of glutamate-, quisqualate- or trans-ACPD-stimulated fluorescence increases",[4],"Neither of these compounds (AP3, AP5 or CNQX) inhibited"
same,effect on quisqualate-induced increase in IP1 levels,[6],not affected
